The results in this text go back to ChEMBL document CHEMBL1147496, “Synthesis and anti-inflammatory activity of some [4,6-(4-substituted aryl)-2-thioxo-1,2,3,4-tetrahydro-pyrimidin-5-yl]-acetic acid derivatives” (2004).

The subject of this test is Rattus norvegicus. The test can be described thus: Anti-inflammatory activity was determined by carangeenan-induced rat paw edema test in albino rats. More on the design: concentration or dose not given beside the values. Format: functional.

On to `Cc1ccc(C2=C(CC(=O)O)C(c3cccs3)NC(S)=N2)cc1` (stereo not drawn), for which the Inhibition is listed as 10%. The molecule `O=C(O)CC1=C(c2ccccc2)N=C(S)NC1c1cccs1` (stereo not drawn) gave an Inhibition of 21%. With `Cc1ccc(C2=C(CC(=O)O)C(c3ccc(Cl)cc3)NC(S)=N2)cc1` (stereo not drawn), the Inhibition is on record as 22%.

In turn, `O=C(O)CC1=C(c2ccccc2)N=C(S)NC1c1ccco1` (stereo not drawn) had an Inhibition of 19%. Under `O=C(O)CC1=C(c2ccccc2)N=C(S)NC1c1ccc(Cl)cc1` (stereo not drawn) stands 30%; under `O=C(O)CC1=C(c2ccc(Cl)cc2)N=C(S)NC1c1ccccc1` (stereo not drawn), 20%.

The molecule `COc1ccc(C2NC(S)=NC(c3ccccc3)=C2CC(=O)O)cc1` (stereo not drawn) displayed an Inhibition of 32%.

`COc1ccc(C2NC(S)=NC(c3ccc(Cl)cc3)=C2CC(=O)O)cc1` (stereo not drawn) came in with an Inhibition of 35%. Molecule `Cc1ccc(C2=C(CC(=O)O)C(c3ccccc3)NC(S)=N2)cc1` (stereo not drawn) yielded an Inhibition of 28%. Under `O=C(O)CC1=C(c2ccccc2)N=C(S)NC1c1cccnc1` (stereo not drawn) stands 15%; under `Cc1ccc(C2=C(CC(=O)O)C(c3cccnc3)NC(S)=N2)cc1` (stereo not drawn), 7%; under `O=C(O)CC1=C(c2ccc(Cl)cc2)N=C(S)NC1c1cccnc1` (stereo not drawn), 11%. Turning to `O=C(O)CC1=C(c2ccc(Cl)cc2)N=C(S)NC1c1cccs1` (stereo not drawn), the Inhibition is reported as 16%. Take `Cc1ccc(C2=C(CC(=O)O)C(c3ccco3)NC(S)=N2)cc1` (stereo not drawn): the Inhibition is reported as 11%.

The molecule `O=C(O)CC1=C(c2ccc(Cl)cc2)N=C(S)NC1c1ccc(Cl)cc1` (stereo not drawn) returned an Inhibition of 25%. Regarding `O=C(O)CC1=C(c2ccc(Cl)cc2)N=C(S)NC1c1ccco1` (stereo not drawn), the Inhibition worked out at 9%. For `O=C(O)CC1=C(c2ccccc2)N=C(S)NC1c1ccccc1` (stereo not drawn), the Inhibition was found to be 17%. Consider `COc1ccc(C2NC(S)=NC(c3ccc(C)cc3)=C2CC(=O)O)cc1` (stereo not drawn), for which the Inhibition was found to be 33%.
